# How the values were obtained:
# IFN-γ = test: LPS-induced IFN-γ production in vivo (serum ELISA); parameters: species or system mouse; details: 0.03 μg/Kg per os 72, 48, 24, 1 h before LPS; serum 3 h post LPS
# Procedure: Lymphokine production was induced in 8 week-old female NOD mice by i.p. injection of 400 μg/mouse Salmonella abortus equi LPS (Sigma). Compound A was administered 72, 48, 24, and 1 h prior to LPS. Blood samples were collected 3 h post LPS injection and serum cytokines measured by ELISA.
# Cytokines were quantified by two-sites ELISA. IFN-γ was determined using paired mAb from PharMingen (San Diego, Calif.). For capture, the mAb was AN-18.17.24. Samples were titrated and incubated overnight at 4° C. To detect bound IFN-γ plates were then incubated with biotinylated XMG1.2 mAb. […] The plates were washed again and incubated with the developing substrate p-nitrophenylphosphate disodium (Sigma) in diethanolamine buffer (pH 9.6; 100 μl/well). The reaction was stopped by adding 50 μl/well NaOH 3N, and absorbance was read at 405 nm. ELISA for IL-12p75 was performed as described (Gately, M. K., et al., Current Protocols Immunol. 1995, 3, 15:6.16.11-16.16.15). Cytokines were quantified from two to three titration points using standard curves generated by purified recombinant mouse cytokines and results expressed as cytokine concentration in ng or pg/ml. Detection limits were 15 pg/ml for both cytokines. […]
# FIG. 3. […] IFN-γ, IL-12p75 and serum calcium levels were quantified 3 h post LPS injection. […] The P values were calculated by Mann-Whitney U test (* indicates P<0.05 vs. vehicle-treated NOD mice).
# CD4+ cells = test: Proliferation and IFN-γ secretion of CD4+ cells following TCR ligation; assay type: in vivo, mouse
# Procedure: Single cell suspensions from pancreatic lymph nodes or spleen were incubated with anti-CD4 mab-coated Microbeads (Miltenyi Biotec) and applied onto Mini-MACS columns (Miltenyi Biotec). Purified CD4^+ cells (6×10^5/well) were cultured for 48 h in round-bottom 96-well plates (Costar) pre-coated with 3 μg/ml purified anti-TCR mAb (ATCC HB 218; American Type Culture Collection, Manassas, Va.) with or without 100 U/ml IL-2 and/or 10 μg/ml anti-CD28 mAb. Cultures were performed in synthetic HL-1 medium (Ventrex Laboratories, Portland, Me.) supplemented with 2 mM L-glutamine and 50 μg/ml gentamicin (Sigma). To measure cell proliferation, cultures were pulsed 8 h before harvesting with 1 μCi [^3H]TdR ([…]; Radiochemical Center, Amersham, U.K.). Incorporation of [^3H]TdR was measured by liquid scintillation spectrometry. Alternatively, splenic or pancreatic lymph node CD4^+CD25^+ and CD4^+CD25^− cells were sorted with MultiSort Kit (Miltenyi Biotec, Auburn, Calif.).
# Cytokines were quantified by two-sites ELISA. IFN-γ was determined using paired mAb from PharMingen (San Diego, Calif.). For capture, the mAb was AN-18.17.24. Samples were titrated and incubated overnight at 4° C. To detect bound IFN-γ plates were then incubated with biotinylated XMG1.2 mAb. […] The plates were washed again and incubated with the developing substrate p-nitrophenylphosphate disodium (Sigma) in diethanolamine buffer (pH 9.6; 100 μl/well). The reaction was stopped by adding 50 μl/well NaOH 3N, and absorbance was read at 405 nm. ELISA for IL-12p75 was performed as described (Gately, M. K., et al., Current Protocols Immunol. 1995, 3, 15:6.16.11-16.16.15). Cytokines were quantified from two to three titration points using standard curves generated by purified recombinant mouse cytokines and results expressed as cytokine concentration in ng or pg/ml. Detection limits were 15 pg/ml for both cytokines.
# FIG. 5. (page 5/9) Proliferation and IFN-γ secretion following TCR ligation. Splenic and pancreatic lymph node CD4^+ cells from untreated 8 week-old (□) or 20 week-old NOD mice treated 5×/week from 8 to 16 weeks of age with vehicle (□) or with 0.03 μg/KgCompound A (▪) were positively selected and stimulated (6×10^5 cells/well) with plate-bound anti-TCR mAb (10 μg/ml) in the presence of 100 U/ml IL-2 and/or 5 μg/ml anti-CD28 mAb. A. Cells were pulsed with [^3H]-thymidine during the last 8 hrs of a 48 h culture. Data are presented as mean ±SE of thymidine incorporation (Δ cpm) from triplicate cultures, background values were 790±100 cpm. B. After 48 h of culture, IFN-γ secretion was quantified by ELISA. Results, presented as mean ±SE of triplicate cultures, are from one representative experiment out of four performed.
# [1] = Serum calcium levels after Compound A treatment; assay type: in vivo, mouse; details: 0.03 μg/Kg per os daily for 4 days before LPS injection, NOD mice
# Procedure: In this experiment the capacity of Compound A to inhibit LPS-induced IL-12 and IFN-γ production in vivo is tested. Mice were pre-treated with vehicle or with 0.03 μg/Kg Compound A administered per os daily for 4 days before LPS injection.
# FIG. 3. […] Compound A (0.03 μg/Kg) was administered orally in miglyol to NOD mice 72, 48, 24 and 1 h before LPS injection. IFN-γ, IL-12p75 and serum calcium levels were quantified 3 h post LPS injection. Bars represent the mean ±SE of 10 mice/group. The P values were calculated by Mann-Whitney U test (* indicates P<0.05 vs. vehicle-treated NOD mice).
# [2] = pancreatic lymph node CD4+ cells
# [3] = pancreatic lymph node CD4+ cells from 20 week-old mice
smiles,measurement,setting,value
"C[C@H](C/C=C\C(O)(C(F)(F)F)C(F)(F)F)C1=CC[C@H]2/C(=C/C=C3C[C@@H](O)C[C@H](O)C3)CCC[C@]12C [Compound A, 1,25-dihydroxy-16,23Z-diene-26,27-hexafluoro-19-nor vitamin D3]",LPS-induced IFN-γ production,IFN-γ,inhibited significantly
same,IFN-γ secretion after addition of IL-2 and/or anti-CD28 mAb,CD4+ cells; [2],restored
same,"proliferation after addition of IL-2, alone or together with anti-CD28 mAb",CD4+ cells; [2],not restored
same,proliferation to insolubilized anti-TCR mAb vs age-matched controls,CD4+ cells; [3],four times less
same,proliferation to insolubilized anti-TCR mAb vs cells from 8 week-old mice,CD4+ cells; [3],10 times less
same,hypercalcemia (serum calcium levels),[1],did not induce hypercalcemia

# Reference: patent US20040214803A1, “Use of vitamin d3 analogue for the treatment of autoimmune diabetes” (priority 2001, published 2004)
